In patent US20230398178A1, “METHODS AND COMPOSITIONS FOR TREATING OR PREVENTING A VAGINAL INFECTION OF GARDNERELLA VAGINALIS” (Massachusetts Institute of Technology, priority 2022, published 2023):
“Also recorded” adds a separate entry of the source.

System: vaginolysin (vly)
Format: cell-based, Gardnerella vaginalis

C[C@@H](O)[C@H](O)[C@H](O)[C@@H](O)C=O [D-fucose, 6-deoxy-D-galactose]
effect on vly expression, in words: expressed less vaginolysin; also recorded: significantly reduce vly expression
